Reference: ChEMBL document CHEMBL3232739, “Discovery of a potent and dissociated non-steroidal glucocorticoid receptor agonist containing an alkyl carbinol pharmacophore” (Bioorg Med Chem Lett, 2014)

Key:
Glucocorticoid receptor [1] = biological target: T1, Glucocorticoid receptor (Homo sapiens, UniProt P04150)
T1 sequence (P04150 whole entry): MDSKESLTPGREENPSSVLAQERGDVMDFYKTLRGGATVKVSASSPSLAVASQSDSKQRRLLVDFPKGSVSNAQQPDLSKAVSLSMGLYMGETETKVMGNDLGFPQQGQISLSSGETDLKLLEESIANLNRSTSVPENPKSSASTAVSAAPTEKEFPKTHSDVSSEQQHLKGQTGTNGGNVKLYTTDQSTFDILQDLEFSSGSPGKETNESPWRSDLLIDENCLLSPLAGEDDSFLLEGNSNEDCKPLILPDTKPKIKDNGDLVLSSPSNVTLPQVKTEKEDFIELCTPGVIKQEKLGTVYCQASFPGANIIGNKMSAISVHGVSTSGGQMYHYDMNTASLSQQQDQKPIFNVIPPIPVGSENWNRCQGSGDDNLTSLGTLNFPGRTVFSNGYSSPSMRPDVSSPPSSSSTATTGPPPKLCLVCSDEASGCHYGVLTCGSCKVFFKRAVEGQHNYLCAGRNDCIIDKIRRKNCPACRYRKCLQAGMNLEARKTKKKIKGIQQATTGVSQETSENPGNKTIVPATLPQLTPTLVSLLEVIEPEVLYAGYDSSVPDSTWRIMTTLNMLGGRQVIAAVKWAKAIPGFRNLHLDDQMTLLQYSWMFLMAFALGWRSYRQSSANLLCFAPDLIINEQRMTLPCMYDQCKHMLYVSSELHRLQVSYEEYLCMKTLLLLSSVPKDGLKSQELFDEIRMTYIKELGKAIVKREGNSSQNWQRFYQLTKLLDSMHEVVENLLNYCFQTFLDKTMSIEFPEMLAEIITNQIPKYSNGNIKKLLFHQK

Glucocorticoid receptor [2] = biological target: T1, Glucocorticoid receptor; remark: listed apart in the source
Description: Agonist activity at glucocorticoid receptor in human foreskin fibroblasts assessed as inhibition of IL-1-induced IL-6 production by trans-repression assay

Progesterone receptor = biological target: T2, Progesterone receptor (Homo sapiens, UniProt P06401); assay: Displacement of TAMRA-labeled mifepristone from progesterone receptor (unknown origin) by fluorescence polarization assay
T2 sequence (P06401 whole entry): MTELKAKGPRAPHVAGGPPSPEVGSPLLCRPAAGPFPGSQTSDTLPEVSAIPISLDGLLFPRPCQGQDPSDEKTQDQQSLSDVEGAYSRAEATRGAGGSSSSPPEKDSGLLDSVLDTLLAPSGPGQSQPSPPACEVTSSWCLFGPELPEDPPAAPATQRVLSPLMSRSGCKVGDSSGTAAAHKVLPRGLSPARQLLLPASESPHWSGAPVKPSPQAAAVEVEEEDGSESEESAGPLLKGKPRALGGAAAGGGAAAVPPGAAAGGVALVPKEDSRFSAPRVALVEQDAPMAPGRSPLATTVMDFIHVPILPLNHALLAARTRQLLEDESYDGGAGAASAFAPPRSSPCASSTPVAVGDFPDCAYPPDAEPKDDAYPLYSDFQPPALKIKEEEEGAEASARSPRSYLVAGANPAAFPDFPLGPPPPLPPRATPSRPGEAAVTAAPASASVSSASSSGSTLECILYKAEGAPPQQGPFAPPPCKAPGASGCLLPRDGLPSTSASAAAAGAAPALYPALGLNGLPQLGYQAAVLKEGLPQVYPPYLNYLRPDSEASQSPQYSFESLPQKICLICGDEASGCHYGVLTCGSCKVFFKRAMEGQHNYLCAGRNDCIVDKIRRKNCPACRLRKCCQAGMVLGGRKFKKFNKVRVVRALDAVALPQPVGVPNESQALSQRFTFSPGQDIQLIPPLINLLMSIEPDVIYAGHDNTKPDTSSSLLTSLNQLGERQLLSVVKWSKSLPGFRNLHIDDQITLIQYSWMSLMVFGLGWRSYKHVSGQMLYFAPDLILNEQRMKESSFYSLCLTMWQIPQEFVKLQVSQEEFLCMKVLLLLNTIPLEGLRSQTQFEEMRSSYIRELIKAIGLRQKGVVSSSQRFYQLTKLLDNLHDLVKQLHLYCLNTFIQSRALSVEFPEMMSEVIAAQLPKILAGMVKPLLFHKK

[3] = biological target: T3, Mineralocorticoid receptor (Homo sapiens, UniProt P08235); assay: Displacement of TAMRA-labeled dexamethasone from mineralocorticoid receptor (unknown origin) by fluorescence polarization assay
T3 sequence (P08235 whole entry): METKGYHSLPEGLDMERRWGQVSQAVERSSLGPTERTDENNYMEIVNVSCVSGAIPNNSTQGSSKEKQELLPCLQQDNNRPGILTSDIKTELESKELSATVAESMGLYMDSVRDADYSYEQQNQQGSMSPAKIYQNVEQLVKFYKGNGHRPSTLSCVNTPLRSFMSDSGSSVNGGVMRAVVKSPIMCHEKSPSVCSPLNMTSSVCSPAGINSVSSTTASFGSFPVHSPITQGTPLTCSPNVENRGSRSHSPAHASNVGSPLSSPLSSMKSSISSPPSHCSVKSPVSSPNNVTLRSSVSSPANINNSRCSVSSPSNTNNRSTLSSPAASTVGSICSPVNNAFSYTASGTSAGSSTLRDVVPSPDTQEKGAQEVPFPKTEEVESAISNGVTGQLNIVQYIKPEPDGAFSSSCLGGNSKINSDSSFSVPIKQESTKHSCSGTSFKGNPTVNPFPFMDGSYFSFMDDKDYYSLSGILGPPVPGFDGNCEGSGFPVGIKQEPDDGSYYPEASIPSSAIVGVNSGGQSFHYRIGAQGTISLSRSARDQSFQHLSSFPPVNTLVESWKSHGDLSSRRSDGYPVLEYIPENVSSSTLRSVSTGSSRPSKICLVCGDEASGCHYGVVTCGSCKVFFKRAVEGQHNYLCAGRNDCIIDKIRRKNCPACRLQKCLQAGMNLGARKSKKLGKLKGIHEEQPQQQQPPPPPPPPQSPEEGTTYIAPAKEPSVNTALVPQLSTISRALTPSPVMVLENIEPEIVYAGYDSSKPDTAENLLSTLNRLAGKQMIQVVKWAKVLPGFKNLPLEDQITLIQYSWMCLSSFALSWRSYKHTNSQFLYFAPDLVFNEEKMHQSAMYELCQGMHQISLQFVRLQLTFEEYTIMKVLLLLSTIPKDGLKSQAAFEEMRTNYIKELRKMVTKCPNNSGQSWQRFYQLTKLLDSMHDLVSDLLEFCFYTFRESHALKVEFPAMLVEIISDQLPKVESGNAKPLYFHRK

Mus musculus [4] = assay: Antiarthritic activity in B10.RIII mouse collagen/complete Freund's adjuvant-induced arthritis model assessed as reduction of disease score at 30 mg/kg, po qd for 5 weeks relative to control; type: functional; design: scale not given: the % may be the effect or the level left
Mus musculus [5] = assay: Toxicity in B10.RIII mouse assessed as insulin level in serum at 30 mg/kg, po qd for 5 weeks relative to control; type: organism-based; design: dose 30 mg/kg, route oral; settings: in vivo, 840 h
Mus musculus [6] = assay: Toxicity in B10.RIII mouse assessed as triglyceride level in serum at 3 mg/kg, po qd for 5 weeks relative to control; type: organism-based; design: dose 3 mg/kg, route oral; settings: in vivo, 840 h
Mus musculus [7] = assay: Toxicity in B10.RIII mouse assessed as insulin level in serum at 3 mg/kg, po qd for 5 weeks relative to control; type: organism-based; design: dose 3 mg/kg, route oral; settings: in vivo, 840 h
Mus musculus [8] = assay: Toxicity in B10.RIII mouse assessed as body fate level in serum at 30 mg/kg, po qd for 5 weeks relative to control; type: organism-based; design: dose 30 mg/kg, route oral; settings: in vivo, 840 h
Mus musculus [9] = assay: Antiarthritic activity in B10.RIII mouse collagen/complete Freund's adjuvant-induced arthritis model assessed as reduction of disease score at 3 mg/kg, po qd for 5 weeks relative to control; type: functional; design: scale not given: the % may be the effect or the level left
Mus musculus [10] = assay: Toxicity in B10.RIII mouse assessed as body fate level in serum at 3 mg/kg, po qd for 5 weeks relative to control; type: organism-based; design: dose 3 mg/kg, route oral; settings: in vivo, 840 h
Mus musculus [11] = assay: Antiinflammatory activity in mouse assessed as inhibition of LPS-induced TNFalpha production at 3 mg/kg, po; type: functional
Mus musculus [12] = assay: Toxicity in B10.RIII mouse assessed as free fatty acid level in serum at 30 mg/kg, po qd for 5 weeks relative to control; type: organism-based; design: dose 30 mg/kg, route oral; settings: in vivo, 840 h
Mus musculus [13] = assay: Toxicity in B10.RIII mouse assessed as triglyceride level in serum at 30 mg/kg, po qd for 5 weeks relative to control; type: organism-based; design: dose 30 mg/kg, route oral; settings: in vivo, 840 h
Mus musculus [14] = assay: Toxicity in B10.RIII mouse assessed as free fatty acid level in serum at 3 mg/kg, po qd for 5 weeks relative to control; type: organism-based; design: dose 3 mg/kg, route oral; settings: in vivo, 840 h
Homo sapiens [15] = species on record: Homo sapiens; assay: Selectivity ratio of IC50 for progesterone receptor (unknown origin) to IC50 for glucocorticoid receptor (unknown origin)
Homo sapiens [16] = species on record: Homo sapiens; assay: Selectivity ratio of IC50 for mineralocorticoid receptor (unknown origin) to IC50 for glucocorticoid receptor (unknown origin)
[17] = Chemical stability of the compound in aqueous solution at pH 2; type: physicochemical; settings: buffer
Glucocorticoid receptor [18] = biological target: T1, Glucocorticoid receptor; remark: listed apart in the source
Description: Transactivation of glucocorticoid receptor in human HeLa cells harboring MMTV promoter by luciferase reporter gene assay

Glucocorticoid receptor [19] = biological target: T1, Glucocorticoid receptor; assay: Transactivation of glucocorticoid receptor in human HeLa cells harboring MMTV promoter at 2 uM by luciferase reporter gene assay relative to dexamethasone; type: cell-based; settings: read-out: Efficacy
[20] = Chemical stability of the compound in aqueous solution at pH 2 to 7.4 after 24 hrs; type: physicochemical; settings: buffer, pH 2, 24 h

IC50 (Glucocorticoid receptor [1]) [µM] | IC50 (Glucocorticoid receptor [2]) [µM] | IC50 (Progesterone receptor) [µM] | IC50 [3] [µM] | Compound | other results
0.051 | 0.22 | > 2 | > 2 | CCC(O)(Cc1cc2ccncc2[nH]1)CC(C)(C)c1cc(F)ccc1OC (centres undefined) | 
0.017 | 0.26 | > 2 | > 2 | COc1ccc(F)cc1C(C)(C)CC(O)(Cc1cc2ccncc2[nH]1)C1CCC1 (centres undefined) | 
 |  |  |  | C[C@]12C=CC(=O)C=C1CC[C@@H]1[C@@H]2[C@@H](O)C[C@@]2(C)[C@H]1CC[C@]2(O)C(=O)CO [PREDNISOLONE] | Activity (Mus musculus [4]): -80%; Activity (Mus musculus [5]): 187%; Activity (Mus musculus [6]): -11%; Activity (Mus musculus [7]): 37%; Activity (Mus musculus [8]): 53%; Activity (Mus musculus [9]): -42%; Activity (Mus musculus [10]): 13%; inhibition in vivo at 3 mg/kg (Mus musculus [11]): 87%; Activity (Mus musculus [12]): 27%; Activity (Mus musculus [13]): 55%; Activity (Mus musculus [14]): 16%
0.004 | 0.01 | > 2 |  | COc1ccc(F)cc1C(C)(C)CC(O)(Cc1cc2ccncc2[nH]1)C(F)(F)F (centres undefined) | 
0.008 | 0.036 | 1.8 | 1.8 | COc1ccc(F)cc1C(C)(C)CC(O)(Cc1cc2ccncc2[nH]1)C(C)(C)C (centres undefined) | Ratio IC50 (Homo sapiens [15]): > 100; Ratio IC50 (Homo sapiens [16]): > 100
0.23 | > 2 | > 2 | > 2 | COc1ccc(F)cc1C(C)(C)CC(C)(O)Cc1cc2ccncc2[nH]1 (centres undefined) | 
0.013 | > 2 | > 2 | 1.9 | CCC(C)(C)C(O)(Cc1cc2ccncc2[nH]1)CC(C)(C)c1cc(F)ccc1OC (centres undefined) | Ratio IC50 (Homo sapiens [15]): > 100; Ratio IC50 (Homo sapiens [16]): > 100
0.015 | 0.047 | > 2 | > 2 | COc1ccc(F)cc1C(C)(C)CC(O)(Cc1cc2ccncc2[nH]1)C1CC1 (centres undefined) | Ratio IC50 (Homo sapiens [15]): > 100; Ratio IC50 (Homo sapiens [16]): > 100
0.026 | > 2 | > 2 | 1.1 | COc1ccc(F)cc1C(C)(C)CC(O)(Cc1cc2ccncc2[nH]1)C1CCCC1 (single isomer, unassigned) | 
0.009 | 0.024 | > 2 | 1.55 | Cc1ccc(F)cc1C(C)(C)CC(O)(Cc1cc2cnccc2[nH]1)C1CC1 (centres undefined) | Stability [17]: Unstable; EC50 (Glucocorticoid receptor [18]): > 2 µM; Emax at 2 µM (Glucocorticoid receptor [19]): 11%
1.3 |  | > 2 | 1.3 | Cc1ccc(F)cc1C(C)(C)C[C@](O)(Cc1cc2cnccc2[nH]1)C(C)(C)C | 
0.009 | 0.073 | > 2 | 1 | COc1ccc(F)cc1C(C)(C)CC(O)(Cc1cc2ccncc2[nH]1)C(C)C (centres undefined) | Ratio IC50 (Homo sapiens [15]): > 100; Ratio IC50 (Homo sapiens [16]): > 100
0.004 | 0.009 | 0.79 | 0.64 | COc1ccc(F)cc1C(C)(C)CC(O)(Cc1cc2cnccc2[nH]1)C(C)(C)C (centres undefined) | EC50 (Glucocorticoid receptor [18]): > 2 µM; Emax at 2 µM (Glucocorticoid receptor [19]): 10%
0.005 | 0.035 | 0.78 | 0.72 | Cc1ccc(F)cc1C(C)(C)CC(O)(Cc1cc2cnccc2[nH]1)C(C)(C)C (racemic) | Stability [17]: Stable; EC50 (Glucocorticoid receptor [18]): > 2 µM; Stability [20]: Stable; Emax at 2 µM (Glucocorticoid receptor [19]): 1%
0.006 | 0.008 | > 2 | 1.8 | COc1ccc(F)cc1C(C)(C)CC(O)(Cc1cc2cnccc2[nH]1)C1CC1 (centres undefined) | EC50 (Glucocorticoid receptor [18]): 0.09 µM; Emax at 2 µM (Glucocorticoid receptor [19]): 20%
